# Reference: BindingDB's records for doi:10.7270/Q2DR2SWV (Vanderbilt Screening Center For Gpcrs, Ion Channels and …, 2010)
# Biological target: Metabotropic glutamate receptor 4 [Q124R] (Rattus norvegicus, UniProt P31423, Q124R)
# Experiment: PubChem AID 2185
# Metabotropic glutamate receptor 4 [Q124R], sequence (P31423 33-912 Q124R limits assumed): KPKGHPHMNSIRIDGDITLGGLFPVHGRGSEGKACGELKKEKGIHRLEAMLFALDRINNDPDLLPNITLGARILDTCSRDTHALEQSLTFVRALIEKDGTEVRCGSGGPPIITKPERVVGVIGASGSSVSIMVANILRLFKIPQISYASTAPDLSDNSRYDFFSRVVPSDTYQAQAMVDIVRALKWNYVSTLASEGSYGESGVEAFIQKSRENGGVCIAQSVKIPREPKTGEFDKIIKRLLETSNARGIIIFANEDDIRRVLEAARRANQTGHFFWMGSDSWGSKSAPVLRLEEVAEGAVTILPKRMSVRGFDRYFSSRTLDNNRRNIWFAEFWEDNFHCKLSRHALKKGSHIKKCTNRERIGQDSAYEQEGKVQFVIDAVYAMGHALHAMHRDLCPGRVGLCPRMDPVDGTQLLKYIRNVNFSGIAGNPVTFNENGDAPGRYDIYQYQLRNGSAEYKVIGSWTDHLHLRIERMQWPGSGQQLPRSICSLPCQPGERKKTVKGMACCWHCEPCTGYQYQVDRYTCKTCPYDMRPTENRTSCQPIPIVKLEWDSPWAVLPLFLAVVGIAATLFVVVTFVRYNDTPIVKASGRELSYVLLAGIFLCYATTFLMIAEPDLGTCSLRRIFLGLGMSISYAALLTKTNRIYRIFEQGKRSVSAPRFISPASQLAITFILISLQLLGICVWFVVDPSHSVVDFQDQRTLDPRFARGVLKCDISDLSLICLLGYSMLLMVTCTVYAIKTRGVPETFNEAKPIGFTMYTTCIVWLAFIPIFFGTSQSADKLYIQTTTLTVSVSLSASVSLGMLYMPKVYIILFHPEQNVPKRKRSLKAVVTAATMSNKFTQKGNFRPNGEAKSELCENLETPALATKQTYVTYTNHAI
row,Compound,EC50 [µM]
1,COc1cc(NC(=O)c2ccccn2)ccc1F,0.374
2,COc1ccc(NC(=O)c2ccccn2)cc1Cl,0.738
3,COc1ccc(NC(=O)c2ccccn2)cc1OC,2.35
4,COc1cc(NC(=O)c2ccccn2)ccc1C,0.208
5,O=C(Nc1ccc(F)c(C(F)(F)F)c1)c1ccccn1,0.999
6,O=C(Nc1ccc(Cl)c(C(F)(F)F)c1)c1ccccn1,1.71
7,"CC1(C)c2c1c(O)n(-c1ccc(NC(=O)c3ccccn3)cc1Cl)c2O [N-[3-chloranyl-4-[(1S,5R)-6,6-dimethyl-2,4-bis(oxidanylidene)-3-azabicyclo[3.1.0]hexan-3-yl]phenyl]pyridine-2-carboxamide]",0.69
8,"O=C(Nc1ccc(-n2c(O)cc(-c3ccccc3)c2O)c(Cl)c1)c1ccccn1 [N-[3-chloro-4-(2,5-dioxo-3-phenyl-1-pyrrolidinyl)phenyl]-2-pyridinecarboxamide]",0.49
9,"O=C(Nc1ccc(-n2c(O)ccc2O)c(Cl)c1)c1ccccn1 [N-[3-chloro-4-(2,5-dioxopyrrolidin-1-yl)phenyl]pyridine-2-carboxamide]",6.89
10,O=C(Nc1ccc(-n2c(O)c3c(c2O)CCCC3)c(Cl)c1)c1ccccn1 [VU0366515-1],0.65
11,O=C(Nc1ccc(-n2c(O)c3c(c2O)[C@H]2CC[C@@H]3O2)c(Cl)c1)c1ccccn1 [VU0405235-1],2.29
